Reference: patent US20260069693A1, “UROLITHINS AND T-CELL MEDIATED IMMUNE RESPONSE” (priority 2022, published 2026)

System: Splenic murine T cells
Assay: aCD3/aCD28 stimulation of murine T cells in presence of UA, flow cytometry
Format: cell-based
Conditions: UA 50 μM + ICG001 10 μM, 48 h
Experimental: Mitochondrial remodelling has been previously associated with alterations in T cell fate (Buck et al., 2016; Yu et al., 2020b). Given the observed dependency of the UA effect on CD8^+ T cells, the inventors wondered whether UA may also directly affect T cell fate commitment. Purified T cells from FVB mice were stimulated with aCD3/aCD28 beads to induce T cell differentiation into effector T cell subsets in the presence or absence of UA for up to 72 hours (FIG. 2A). […] Previously, a rare naïve-like subset of T cells with enhanced stemness capabilities, termed T memory stem cells (TSCM) has been identified (Gattinoni et al., 2009). TSCM are marked by extreme longevity, their ability to self-renew, and potential for immune reconstitution (Gattinoni et al., 2017) which translates into potent anti-tumor immunity. Phenotypically, TSCM represent a subset of minimally differentiated T cells, which share a CD44^loCD62L^hi phenotype with naïve T cells, but are phenotypically distinct by expressing high levels of Sca1 (Gattinoni et al., 2009). […] This was associated with reduced cyclin D1 expression (not shown), in line with previous observations that link TSCM reprogramming to halted proliferation (Gattinoni et al., 2009; Verma et al., 2021).
Splenic murine T cells were isolated from mice aged 6-20 weeks by negative selection with EasySep mouse T cell isolation kit (Stem cell) according to the manufacturer's instructions. To monitor T cell proliferation, purified T cells were loaded with CellTrace Violet (C34557 ThermoFisher Scientific). T cell activation was initiated using αCD3/CD28 activation beads (11456D; ThermoFisher Scientific) at a ratio of 25 μl dynabeads per 0.5×10^6 T-cells. Cells were activated with 25-50 μM Urolithin A (Tocris) or DMSO in T cell activation Medium (RPMI (ThermoFisher Scientific) 10% FBS (South America origin), 10 mM Hepes (Sigma), 1× Non-Essential Amino Acid, 1 mM Sodium Pyruvate, 50 μM B-Mercaptoethanol, 100 U/ml penicillin, 100 μg/ml streptomycin and 2 mM Glutamax (ThermoFisher Scientific) for the indicated durations. In selected experiments, cells were stimulated in the presence of inhibitors, namely TCF1i (ICG-001; SelleckChem; 10 μM) and PGC-1αi (SR-18292, Sigma-Aldrich; 10 μm,). For subsequent analysis, activating beads were magnetically removed prior antibody staining. For human T cells, peripheral blood mononuclear cells were purified with a Ficoll-Paque (GE healthcare) gradient. T cells were enriched with EasySep Human T Cell Isolation Kit (StemCell) and activated with dynabead Human T-Activator CD3/CD28 for T Cell Expansion and Activation Kit (11131D; ThermoFisher Scientific), similar to murine T cell stimulation. […]
For flow cytometric analysis of mitochondria and lysosomes 500 μl of Mitotracker Red (200 nM; ThermoFisher) or Lysotracker Red DND-99 (75 nM; ThermoFisher) were applied followed by surface staining. To study changes in mitochondrial membrane potential, Mitoprobe TMRM kit (ThermoFisher) was used according to the manufacturer's instructions. Cell proliferation was assessed by CellTrace Violet (Invitrogen, C34557) at a concentration of 5 μM according to manufacturer's instructions. For human samples, cells were stained as described above with Fixable Viability Dye-eF780, αCD95-BV421 (DX2; 562616), αCD62L-PE (DREG-56; 555544), αCCR7-AF700 (150503; 561143), αCD45RO-APC (UCHL; 559865), αCD45RA-FITC (HI100; 555488), αCD8-PE-CF594 (RPA-T8; 562282) and αCD4-BV786 (OKT4; 566806) from BD.

O=C1[C@H](Cc2ccc(O)cc2)N2C(=O)CCN(C(=O)NCc3ccccc3)[C@H]2CN1Cc1cccc2ccccc12 [ICG001, reference compound]
UA-induced TSCM formation in vitro under TCF-1 block: abrogated
